The values that follow come from EP2511272B1, “Synthetic analogues of abscisic acid with anti-inflammatory and insulin release stimulation effects on human cells” (Universita' degli Studi di Genova, priority 2011, dated 2012).

The test system of the assay is human granulocytes. Put plainly: Determination of intracellular cAMP levels (inhibition of ABA-induced cAMP increase). Type of assay: cell-based. Here is the method:
Human granulocytes, after being incubated overnight (ON) in DMEM/F12 supplemented with 10% of foetal bovine serum (FCS), penicillin (50 units/ml) and streptomycin (50 µg/ml) (DMEM/F12 complete), were centrifuged at 200xg for 5 min and were then resuspended in HBSS (Hanks' Balanced Salt Solution) with calcium and magnesium (15 x 10^6 cells /200 µl) and preincubated for 5 minutes at 25 °C in the presence of 10 µM of phosphodiesterase inhibitor 4-[(3-butoxy-4-methoxyphenyl)-methyl]-2-imidazolidinone (Ro-20-1724). Two hundred (200) µl of suspension were then drawn and were incubated for 1 minute with 1 µM ABA (Sigma-Aldrich) either alone, or in the presence of decreasing concentrations (from 50 µM to 0.01 nM) of test compounds obtained according to the preceding examples. The reaction was terminated by the addition of 13 µl of perchloroacetic acid (PCA) to the end concentration of 0.6 M at 4 °C.
The cell lysates were centrifuged for 5 min at 17,000 x g at 4 °C and the supernatant was adjusted at pH 7.5 with 3 M potassium carbonate (K2CO3). The reaction led to the development of gas CO2 and the formation of a white precipitate of potassium perchlorate (KClO4), which was removed by a 5-minute centrifugation at 17,000xg at 4 °C.
Intracellular concentration of cAMP was determined by means of the competitive radioimmunological test [^3H]cAMP assay system (Amersham, GE Healthcare), following manufacturer's instructions..
The experiments were carried out three times, in triplicate.
Tests were carried out on human granulocytes according to the above explained procedure, in which the production of cAMP was compared to a group of control cells in case of treatment with ABA 1 µM and with ABA 1 µM + tested compound 50 µM.

Each structure is given as a SMILES string.

For the compound `CC(=C/C(=O)O)/C=C/C1(O)C(C)(C)CC(=O)C2OC21C` (single isomer, unassigned) [Example 1, trans, 2'α,3'α-dihydro-2'α,3'α-epoxyabscisic acid], the inhibition at 50 µM (ABA 1 µM + tested compound 50 µM, read-out: inhibition (production of cAMP)) came to 100%. Where the note is “cAMP increase induced by 1 µM ABA, compound 0.01 nM”, the inhibition at 10 pM is 0%. The inhibition at 0.0001 µM (cAMP increase induced by 1 µM ABA, compound 0.1 nM) is 25%. This compound also gave an inhibition at 0.001 µM (cAMP increase induced by 1 µM ABA, compound 1 nM) of 57%. For the setting “cAMP increase induced by 1 µM ABA, compound 100 nM”, this compound gave an inhibition at 0.1 µM of 100%. This compound came in with an inhibition at 1 µM (cAMP increase induced by 1 µM ABA, compound 1 µM) of 100%. Under “cAMP increase induced by 1 µM ABA, compound 5 µM”, this compound yielded an inhibition at 5 µM of 100%. The compound further yielded an inhibition at 10 µM (cAMP increase induced by 1 µM ABA, compound 10 µM) of 100%. In addition, where the note is “increase in cAMP concentration induced by 1 µM ABA”, the IC50 is roughly 1 nM.
